The subject of the data set is Human iPSC-derived hepatocytes (iCell® Hepatocytes). The data set is described as follows: Gene expression profiling of iCell Hepatocytes by microfluidic qRT-PCR. The settings on record: multiple doses, FIG. 1. It counts as cell-based. How it is done: Human iPSC-derived hepatocytes (iCell® Hepatocytes) were exposed to the compounds of formula I with the goal of identifying conditions that favor greater functionality that better models the adult organ. […] Gene expression changes were validated and confirmed in a secondary screen, and functional consequences were queried.
Fresh iCell® Hepatocytes (day 20-23) were plated and cultured according to iCell Hepatocytes Dissociation and Plating User's Guide at 60 k cells per well in 96 well BIO Collagen IV coated plates (BD Cat#354429) 4 Hours post plating Medium C was removed and replaced with a 1:50 Matrigel (Cat#354227) overlay in Medium D. We dosed the cells at 5 uM in Medium D and 1% DMSO 24 hours post plating. Day 3, media was removed and we dosed again at 5 uM. Day 4 we Harvested RNA.
Sample RNA was isolated using TaqMan® Gene Expression Cells-to-CT™ Kit (Life Technologies Cat#4387299) froze at −80 C at various time points post compound treatment. All samples were processed by microfluidic quantitative PCR using the Biomark Fluidigm 96.96 chips (BMK-M-96.96) and ABI Taqman probes. Normalization and model-based expression measurements were calculated using the Biogazelle qBASE and Genorm software. […] Expression values are calculated by the fold change over vehicle control. […]
On the technique in general: In qPCR the cycle at which signal appears reflects the starting amount.

As to `O=C(NCc1cccc(F)c1)c1cccc2nc(-c3c(NC[C@@H](O)c4ccccc4)cc[nH]c3=O)[nH]c12` [Example 1, 2-[4-((S)-2-hydroxy-2-phenyl-ethylamino)-2-oxo-1,2-dihydro-pyridin-3-yl]-3H-benzoimidazole-4-carboxylic acid 3-fluoro-benzylamide], the “expression of genes spanning hepatocyte function” value was “global increase of genes spanning hepatocyte function”.

Source of the values: patent US9181218B2, “Compounds for improved stem cell differentiation into hepatocytes” (Hoffmann-La Roche Inc., priority 2013, dated 2015).
